From patent US5840940A, “Linoleoylamide based ceramide derivative and its use in cosmetic preparations for the treatment of dry skin” (Gist-Brocades B.V., priority 1994, dated 1998)
“Also recorded” adds a separate entry of the source.

Tests used:
[1] = Solubility in emollients (visual inspection, maximum concentration before the solution turned cloudy); assay type: physicochemical
Experimental: Increasing amounts of the compound were added to the solvent and stirred under nitrogen for 30 minutes at 45° C. After cooling to room temperature (22°±2° C.) the solutions were kept in the dark. After 1, 24 and 48 hours the solutions were visually inspected. The maximum concentration was determined before the solution turned cloudy, indicating the presence of insoluble crystals.

[2] = system: SDS-damaged skin; test: Trans-epidermal water loss (TEWL) / barrier recovery of SDS-damaged skin (Tewameter); assay type: in vivo, female volunteers (human)
Experimental: Measurements of trans-epidermal water loss (TEWL) were performed with the Tewameter (Courage & Khazaka, Cologne, Germany). The Tewameter is a device for measurement of water evaporation on skin surfaces based on the diffusion principle discovered by A. Fick in 1885.
Five female volunteers at the age of 22-43 years with healthy skin were included in the test.
Measurements were carried out at a temperature of 22°±1° C. and a relative humidity of 60±10%. Subjects were accustomed to ambient conditions for 20 min prior to any measurement. The test was carried out on the volar forearms. The skin of the forearms was treated with a 5% aqueous solution of sodium lauryl sulphate (SDS) and an occlusive dressing applied. The dressing was removed 2 h later, and the regions gently washed with water and air-dried. After 30 min the measurements were done. Then the three test products were applied, one area remained untreated. The dose of application was about 2 mg/cm^2. In the following 14 days a home application in the morning and evening took place.
Measurements were evaluated during the treatment period on day 3, 7 and 14 one hour after the last daily application. Use of other cosmetic products was restricted on the test areas throughout the whole study.

[3] = system: SDS-damaged skin; test: Skin humidity of SDS-damaged skin (corneometer CM 820 PC); assay type: in vivo, female volunteers (human); conditions: creams with 0.2% and 0.5% ceramide IIIA, 14 days, compared to placebo
Experimental: (§1) The corneometer CM 820 PC (Courage and Khazaka, Cologne, Germany) registers the electrical capacitance of the skin surface, which is a measure of the degree of moisture on the skin's surface. The capacitance is expressed digitally in arbitrary units (a.u.). Three measurements were performed on each test area and the mean was used to define hydration state of the stratum corneum.
(§2) The corneometer comprises a console and its sensor. The sensor is connected to the console by a special plug and coiled cable. The measurement is indicated on the 40×18 mm display screen on the console as a three-place number. The display also fulfils other information functions.
The sensor is rectangular in shape. Its special glass coated active front surface can be moved axially, and has a stroke of at least 3 mm. The measuring principle demands that the sensor surface be placed flat on the test object at a constant pressure. In order to ensure this as reproducibly as possible, the front surface of the measuring head has been designed to be very small (7×7 mm). […]
(§3) The corneometer is completely automatic in operation. In order to carry out a measurement, the measuring head is pressed against the area of skin to be measured. […]
Measurements were evaluated during the treatment period on day 3, 7 and 14 one hour after the last daily application. […]

[4] = system: healthy skin; test: Skin humidity of healthy skin (corneometer CM 820 PC), long-term effects of ceramide IIIA; assay type: in vivo, female volunteers (human); conditions: creams with 0.2% and 0.5% ceramide IIIA, twice daily, 28 days, compared to placebo
Experimental: as §1, §2
The sensor is rectangular in shape. Its special glass coated active front surface can be moved axially, and has a stroke of at least 3 mm. […]
as §3
Measurements were carried out at a temperature of 22°±1° C. and a relative humidity of 60±10%. […] Initially untreated skin was measured in all three areas to find baseline values. […]
Measurements were evaluated during the treatment period on day 7, 14 and 28 two hours after the last daily application. The application was ceased on day 28 and further measurements were evaluated on day 30 and 32. […]

[5] = isocetyl alcohol (Eutanol G16) and/or isostearic acid (Emersol)
[6] = isocetyl alcohol (Eutanol G16), stirred 45° C., room temperature (22°±2° C.), 1, 24 and 48 hours

Q: With CCCCCCCCCCCCCCCCCC(=O)N[C@@H](CO)[C@H](O)[C@H](O)CCCCCCCCCCCCCC [Ceramide III, N-stearoylphytosphingosine, reference compound] as the compound, how does the “Solubility” value [1, 5] read?
A: The value was “less than 0.2 % (w/v)”.

Q: What about the Solubility [1, 6] of the same compound?
A: Its Solubility is 0.16 % w/v.

Q: Which Trans-epidermal water loss ([2]; SDS-damaged skin, 14 days treatment, compared to placebo) does the source give for CCCCC/C=C\C/C=C\CCCCCCCC(=O)N[C@@H](CO)[C@H](O)[C@H](O)CCCCCCCCCCCCCC [Ceramide IIIA, N-linoleoylphytosphingosine] here?
A: The Trans-epidermal water loss was “a reduction of trans-epidermal water loss”.

Q: What about the “Restoration of the barrier layer” value ([2]; surfactant (SDS)-pretreated skin, compared to placebo product) of the same compound?
A: The value was “high capacity for restoration of the impaired lipid barrier of the skin; also recorded: quicker recovery of the barrier layer of SDS-treated skin than the placebo product”.

Q: And the “Moisturizing effect (skin humidity)” value [3]?
A: The value was “increase of skin humidity of damaged skin compared to placebo”.

Q: And the “Solubility, in words” value ([1]; emollient solvents, compared with saturated analogue and ceramide 1)?
A: Its value is “solubilizes much better than its saturated analogue and than ceramide 1”.

Q: What about the “Solubility” value [1, 5] of the same compound?
A: The value was ≥ 1 % (w/v).

Q: What about the Solubility [1, 6] of the same compound?
A: The Solubility was 5 % w/v.

Q: What about the “Moisturizing effect (skin humidity)” value [4] of the same compound?
A: Its value is “clear moisture-retaining effect on healthy skin; also recorded: clear moisturizing effect compared to placebo”.
